Starred links: 1 amine or outer side, 2 acyl side, 3 side chain; linkers in the order of their positions; H or OH if unused. Non-standard residues stand in square brackets, D forms with d. Residues, ends and D or L forms follow the SMILES beside them. *: point of attachment. X4 = CC(C)[C@@H](C(=O)[*:2])N(CCCCN(C)C(=O)OC(C)(C)C)[*:1]; Dolaproine = CO[C@@H]([C@@H]1CCCN1)[C@@H](C)C(=O)O; X3 = CC(C)[C@@H](C(=O)[*:2])N(C)CCCCN(C)[*:1]; X16 = CC(CCN(C)[C@H](C(=O)*)C(C)C)CC(C)(C)C; X18 = CCCCCCCCCCCCCCCN(C)[C@H](C(=O)*)C(C)C; X7 = CC(C)[C@@H](C(=O)[*:2])N(C)CCN(C)[*:1]; Dil = CC[C@H](C)[C@H](NC)[C@@H](CC(=O)O)OC; X6 = CC(C)[C@@H](C(=O)[*:2])N(C)CCCN[*:1]; X21 = CCCCCCCCCCCN(C)[C@H](C(=O)*)C(C)C; X8 = CCCCCCCCCCCCN(C)[C@H](C(=O)*)C(C)C; X24 = CC(C)CCCN(C)[C@H](C(=O)*)C(C)C; X22 = CC(C)CCN(C)[C@H](C(=O)*)C(C)C; X23 = CCCN(CCC)[C@H](C(=O)*)C(C)C; X17 = CCN(CC)[C@H](C(=O)*)C(C)C; Boc = CC(C)(C)OC(=O)*
Experiments:
Format in all cases: cell-based
[1] = tested on: MDR− HL60 acute myeloid leukemia cell line; experiment: In vitro cytotoxicity (CellTiter-Glo cell proliferation assay), free drugs on HL60; conditions: Homo sapiens, HL-60, 96 h, read-out: In vitro IC50 HL60 (MDR−)
Protocol: (§1) The cytotoxicity of an auristatin Ligand Drug Conjugate or free auristatin drug was measured by a cell proliferation assay employing the protocol described in Promega Corp. Technical Bulletin TB288; Mendoza et al., 2002, Cancer Res. 62:5485-5488), the methods of which is specifically incorporated by reference herein. Briefly, an aliquot of 100 μl of cell culture containing about […] (e.g., HL-60, SK-MEL-5, etc.) in medium is deposited in each well of a 96-well, opaque-walled plate. Control wells were prepared containing medium and without cells. Free Drug or conjugate is added to the experimental wells and incubated for 96 h and are then equilibrated to room temperature for approximately 30 minutes whereupon a volume of CellTiter-Glo™ reagent equal to the volume of cell culture medium present in each well is added. The contents are mixed for 2 minutes on an orbital shaker to induce cell lysis and the plate is incubated at room temperature for 10 minutes to stabilize the luminescence signal for recordation.

[2] = tested on: MDR+ HL60/RV acute myeloid leukemia cell line; experiment: In vitro cytotoxicity (CellTiter-Glo cell proliferation assay), free drugs on HL60/RV; conditions: Homo sapiens, HL-60, 96 h, read-out: In vitro IC50 HL60/RV (MDR+)
Protocol: as §1

[3] = tested on: A375 Melanoma; experiment: In vitro cytotoxicity, free drugs on A375; conditions: Homo sapiens, A-375; free drug
Protocol: as §1

[4] = In vitro cytotoxicity, free drugs on Colo-853; conditions: free drug; read-out: In vitro IC50 Colo-853 Colon Cancer
Protocol: as §1

[5] = tested on: SK-MEL-5 Melanoma; experiment: In vitro cytotoxicity, free drugs on SK-MEL-5; conditions: Homo sapiens, SK-MEL-5; free drug
Protocol: as §1

[6] = tested on: SK-MEL-28 Melanoma; experiment: In vitro cytotoxicity, free drugs on SK-MEL-28; conditions: Homo sapiens, SK-MEL-28; free drug
Protocol: as §1

[7] = tested on: A2058 Melanoma; experiment: In vitro cytotoxicity, free drugs on A2058; conditions: Homo sapiens, A2058; free drug
Protocol: as §1

[8] = tested on: IGR-37 Melanoma; experiment: In vitro cytotoxicity, free drugs on IGR-37; conditions: Homo sapiens, IGR-37; free drug
Protocol: as §1

Row | Structure (SMILES) | IC50 [1] [nM] | IC50 [2] [nM] | IC50 [3] [nM] | IC50 [4] [nM] | IC50 [5] [nM] | IC50 [6] [nM] | IC50 [7] [nM] | IC50 [8] [nM]
1 | CCCCCCCCCCCN(C)[C@H](C(=O)N[C@H](C(=O)N(C)[C@@H]([C@@H](C)CC)[C@@H](CC(=O)N1CCC[C@H]1[C@H](OC)[C@@H](C)C(=O)N[C@@H](Cc1ccccc1)C(=O)O)OC)C(C)C)C(C)C [Compound 13, Undecyl-AF] (X21-V[Dil][Dolaproine]F-OH) | 1 | 60.2 | – | – | – | – | – | –
2 | CCCCCCCCCCCCN(C)[C@H](C(=O)N[C@H](C(=O)N(C)[C@@H]([C@@H](C)CC)[C@@H](CC(=O)N1CCC[C@H]1[C@H](OC)[C@@H](C)C(=O)N[C@@H](Cc1ccccc1)C(=O)O)OC)C(C)C)C(C)C [Compound 14, Dodecyl-AF] (X8-V[Dil][Dolaproine]F-OH) | 1.4 | 138 | – | – | – | – | – | –
3 | CCCCCCCCCCCCCCCN(C)[C@H](C(=O)N[C@H](C(=O)N(C)[C@@H]([C@@H](C)CC)[C@@H](CC(=O)N1CCC[C@H]1[C@H](OC)[C@@H](C)C(=O)N[C@@H](Cc1ccccc1)C(=O)O)OC)C(C)C)C(C)C [Compound 15, Pentadecyl-AF] (X18-V[Dil][Dolaproine]F-OH) | 4.7 | 294 | – | – | – | – | – | –
4 | CC[C@H](C)[C@@H]([C@@H](CC(=O)N1CCC[C@H]1[C@H](OC)[C@@H](C)C(=O)N[C@@H](Cc1ccccc1)C(=O)O)OC)N(C)C(=O)[C@@H](NC(=O)[C@H](C(C)C)N(C)CCCCN(C)C(=O)OC(C)(C)C)C(C)C [Compound 16, (Boc-N-methyl)-butyl-AF] (Boc-[X3]V[Dil][Dolaproine]F-OH) | – | – | 0.7 | 6.2 | 0.4 | 4.4 | 0.9 | 2.5
5 | CC[C@H](C)[C@@H]([C@@H](CC(=O)N1CCC[C@H]1[C@H](OC)[C@@H](C)C(=O)N[C@@H](Cc1ccccc1)C(=O)O)OC)N(C)C(=O)[C@@H](NC(=O)[C@@H](NCCCCN(C)C(=O)OC(C)(C)C)C(C)C)C(C)C [Compound 17, (Boc-N-methyl)-butyl-AF] (H-[X4]V[Dil][Dolaproine]F-OH) | – | – | 14.8 | 66.2 | 26.2 | 77.3 | 20.3 | 62.7
6 | CC[C@H](C)[C@@H]([C@@H](CC(=O)N1CCC[C@H]1[C@H](OC)[C@@H](C)C(=O)N[C@@H](Cc1ccccc1)C(=O)O)OC)N(C)C(=O)[C@@H](NC(=O)[C@H](C(C)C)N(C)CCCNC(=O)OC(C)(C)C)C(C)C [Compound 18, N-Boc-propyl-AF] (Boc-[X6]V[Dil][Dolaproine]F-OH) | – | – | 4.9 | 17.5 | 4 | 21 | 9.1 | 13.7
7 | CC[C@H](C)[C@@H]([C@@H](CC(=O)N1CCC[C@H]1[C@H](OC)[C@@H](C)C(=O)N[C@@H](Cc1ccccc1)C(=O)O)OC)N(C)C(=O)[C@@H](NC(=O)[C@H](C(C)C)N(C)CCCC(C)C)C(C)C [Compound 19, 4-Methylpentyl-AF] (X24-V[Dil][Dolaproine]F-OH) | 4.9 | 20.5 | – | – | – | – | – | –
8 | CC[C@H](C)[C@@H]([C@@H](CC(=O)N1CCC[C@H]1[C@H](OC)[C@@H](C)C(=O)N[C@@H](Cc1ccccc1)C(=O)O)OC)N(C)C(=O)[C@@H](NC(=O)[C@H](C(C)C)N(C)CCC(C)CC(C)(C)C)C(C)C (stereo partly shown) [Compound 20, 3,5,5-Trimethylhexyl-AF] (X16-V[Dil][Dolaproine]F-OH) | 1 | 17 | – | – | – | – | – | –
9 | CC[C@H](C)[C@@H]([C@@H](CC(=O)N1CCC[C@H]1[C@H](OC)[C@@H](C)C(=O)N[C@@H](Cc1ccccc1)C(=O)O)OC)N(C)C(=O)[C@@H](NC(=O)[C@H](C(C)C)N(C)CCC(C)C)C(C)C [Compound 21, 3-Methylbutyl-AF] (X22-V[Dil][Dolaproine]F-OH) | 9 | 46.3 | – | – | – | – | – | –
10 | CC[C@H](C)[C@@H]([C@@H](CC(=O)N1CCC[C@H]1[C@H](OC)[C@@H](C)C(=O)N[C@@H](Cc1ccccc1)C(=O)O)OC)N(C)C(=O)[C@@H](NC(=O)[C@H](C(C)C)N(CC)CC)C(C)C [Compound 22, Bis(ethyl)-AF] (X17-V[Dil][Dolaproine]F-OH) | 13.6 | 202 | – | – | – | – | – | –
11 | CCCN(CCC)[C@H](C(=O)N[C@H](C(=O)N(C)[C@@H]([C@@H](C)CC)[C@@H](CC(=O)N1CCC[C@H]1[C@H](OC)[C@@H](C)C(=O)N[C@@H](Cc1ccccc1)C(=O)O)OC)C(C)C)C(C)C [Compound 23, Bis(propyl)-AF] (X23-V[Dil][Dolaproine]F-OH) | 6.2 | 437 | – | – | – | – | – | –
12 | CC[C@H](C)[C@@H]([C@@H](CC(=O)N1CCC[C@H]1[C@H](OC)[C@@H](C)C(=O)N[C@@H](Cc1ccccc1)C(=O)O)OC)N(C)C(=O)[C@@H](NC(=O)[C@H](C(C)C)N(C)CCN(C)C(=O)OC(C)(C)C)C(C)C [Compound 24, Boc-(N-methyl-ethyl)-AF] (Boc-[X7]V[Dil][Dolaproine]F-OH) | – | – | 4.9 | 19.6 | 5.7 | 13.9 | 5.2 | 23.1

— patent US11857565B2, “Hydrophobic Auristatin F compounds and conjugates thereof” (priority 2018, dated 2024)
